Test results as given in patent publication US6599901B1, “Pyridone substituted benzothiazole derivatives” (Hoffman-La Roche Inc., priority 2001, dated 2003).

The compounds below were run against T1, human adenosine A1 receptor (Homo sapiens, UniProt P30542) (assay: [3H]-DPCPX binding assay, human adenosine A1 receptor (CHO cell membranes, SPA)). Conditions: recombinant human A1 receptor in CHO membranes; [3H]-DPCPX 0.6 nM; Ki by Cheng-Prussoff; read-out: hA1 (pKi) (converted).
T1 construct: expressed in transfected cells; host or cells: CHO cells, semliki forest virus expression system
T1 sequence (P30542 1-326): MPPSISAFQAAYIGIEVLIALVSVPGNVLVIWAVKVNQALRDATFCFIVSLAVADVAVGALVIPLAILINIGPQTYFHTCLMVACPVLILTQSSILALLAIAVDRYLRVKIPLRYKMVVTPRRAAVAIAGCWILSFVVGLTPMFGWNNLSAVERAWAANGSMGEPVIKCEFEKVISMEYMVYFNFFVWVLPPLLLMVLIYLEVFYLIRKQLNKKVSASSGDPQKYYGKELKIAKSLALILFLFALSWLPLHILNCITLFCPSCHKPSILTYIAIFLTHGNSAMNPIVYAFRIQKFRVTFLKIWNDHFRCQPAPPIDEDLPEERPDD
Procedure: (§1) The human adenosine A1 receptor was recombinantly expressed in chinese hamster ovary (CHO) cells using the semliki forest virus expression system. Cells were harvested, washed twice by centrifugation, homogenised and again washed by centrifugation. The final washed membrane pellet was suspended in a Tris (50 mM) buffer containing 120 mM NaCl, 5 mM KCl, 2 mM CaCl2 and 10 mM MgCl2 (pH 7.4) (buffer A). The [^3H]-DPCPX (([propyl-^3H]8-cyclopentyl-1,3-dipropyxanthine); 0.6 nM) binding assay was carried out in 96-well plates in the presence of 2.5 μg of membrane protein, 0.5 mg of Ysi-poly-1-lysine SPA beads and 0.1 U adenosine deaminase in a final volume of 200 μl of buffer A. Non-specific binding was defined using xanthine amine congener (XAC; 2 μM). Compounds were tested at 10 concentrations from 10 μM-0.3 nM. All assays were conducted in duplicate and repeated at least two times. Assay plates were incubated for 1 hour at room temperature before centrifugation and then bound ligand determined using a Packard Topcount scintillation counter. IC50 values were calculated using a non-linear curve fitting program and Ki values calculated using the Cheng-Prussoff equation.

Ki [nM]	SMILES
1260	COc1ccc(N2CCOCC2)c2sc(NC(=O)c3ccn(Cc4ccccc4)c(=O)c3)nc12 [Example 1, 1-Benzyl-2-oxo-1,2-dihydro-pyridine-4-carboxylic Acid (4-Methoxy-7-morpholin-4-yl-benzothiazol-2-yl)-amide]

The compounds below were run against T2, human adenosine A2A receptor (Homo sapiens, UniProt P29274) (assay: [3H]-SCH-58261 binding assay, human adenosine A2A receptor (CHO cell membranes, SPA)). Conditions: recombinant human A2A receptor in CHO membranes; [3H]-SCH-58261 1 nM; Ki by Cheng-Prussoff; read-out: hA2 (pKi) (converted).
T2 construct: expressed in transfected cells; host or cells: CHO cells, semliki forest virus expression system
T2 sequence (P29274 whole entry): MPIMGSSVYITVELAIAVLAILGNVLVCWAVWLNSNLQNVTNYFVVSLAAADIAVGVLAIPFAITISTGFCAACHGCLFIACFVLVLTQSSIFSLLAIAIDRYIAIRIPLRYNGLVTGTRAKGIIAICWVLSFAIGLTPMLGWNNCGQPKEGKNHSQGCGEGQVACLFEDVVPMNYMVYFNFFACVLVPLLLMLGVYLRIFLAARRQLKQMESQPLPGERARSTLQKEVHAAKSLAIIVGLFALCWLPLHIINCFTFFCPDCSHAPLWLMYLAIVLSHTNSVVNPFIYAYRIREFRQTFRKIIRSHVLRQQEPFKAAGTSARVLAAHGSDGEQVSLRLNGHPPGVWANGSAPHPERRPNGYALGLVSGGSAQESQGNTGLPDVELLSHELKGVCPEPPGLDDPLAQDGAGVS
Procedure: as §1, with “A2A” for “A1”, “[^3H]-SCH-58261 (Dionisotti et al., 1997, Br J Pharmacol 121, 353; 1” for “[^3H]-DPCPX (([propyl-^3H]8-cyclopentyl-1,3-dipropyxanthine); 0.6”, “[…]” for “μg”

SMILES	Ki [nM]
CCOC(=O)Cn1ccc(C(=O)Nc2nc3c(OC)ccc(N4CCOCC4)c3s2)cc1=O [Example 2, [4-(4-Methoxy-7-morpholin-4-yl-benzothiazol-2-ylcarbamoyl)-2-oxo-2H-pyridin-1-yl]-acetic Acid Ethyl Ester]	6.46
COc1ccc(N2CCOCC2)c2sc(NC(=O)c3ccn(Cc4ccccc4)c(=O)c3)nc12 [Example 1, 1-Benzyl-2-oxo-1,2-dihydro-pyridine-4-carboxylic Acid (4-Methoxy-7-morpholin-4-yl-benzothiazol-2-yl)-amide]	2.14

Now from value to compound:

Ki [nM]	SMILES
58.9	COc1ccc(N2CCOCC2)c2sc(NC(=O)c3ccn(CC(=O)N4CCOCC4)c(=O)c3)nc12 [Example 5, 1-(2-Morpholin-4-yl-2-oxo-ethyl)-2-oxo-1,2-dihydro-pyridine-4-carboxylic Acid (4-Methoxy-7-morpholin-4-yl-benzothiazol-2-yl)-amide]
5.75	CCC(=O)Cn1ccc(C(=O)Nc2nc3c(OC)ccc(N4CCOCC4)c3s2)cc1=O [Example 3, 2-oxo-1-(2-oxo-Butyl)-1,2-dihydro-pyridine-4-carboxylic Acid (4-Methoxy-7-morpholin-4-yl-benzothiazol-2-yl)-amide]
50.1	COc1ccc(N2CCOCC2)c2sc(NC(=O)c3ccn(CC(=O)N(C)C)c(=O)c3)nc12 [Example 6, 1-Dimethylcarbamoylmethyl-2-oxo-1,2-dihydro-pyridine-4-carboxylic Acid (4-Methoxy-7-morpholin-4-yl-benzothiazol-2-yl)-amide]
7.94	COc1ccc(N2CCOCC2)c2sc(NC(=O)c3ccn(Cc4ccccn4)c(=O)c3)nc12 [Example 4, 2-oxo-1-Pyridin-2-ylmethyl-1,2-dihydro-pyridine-4-carboxylic Acid (4-Methoxy-7-morpholin-4-yl-benzothiazol-2-yl)-amide]
